Data from publication PMC9153040 (Blood Advances, 2021).

Molecular target: T1, ALAS2 (recombinant erythroid-specific 5-aminolevulinate synthase; hsALAS2 in transgenic MEL cells) (Homo sapiens, UniProt P22557)
T1 sequence (P22557 50-587): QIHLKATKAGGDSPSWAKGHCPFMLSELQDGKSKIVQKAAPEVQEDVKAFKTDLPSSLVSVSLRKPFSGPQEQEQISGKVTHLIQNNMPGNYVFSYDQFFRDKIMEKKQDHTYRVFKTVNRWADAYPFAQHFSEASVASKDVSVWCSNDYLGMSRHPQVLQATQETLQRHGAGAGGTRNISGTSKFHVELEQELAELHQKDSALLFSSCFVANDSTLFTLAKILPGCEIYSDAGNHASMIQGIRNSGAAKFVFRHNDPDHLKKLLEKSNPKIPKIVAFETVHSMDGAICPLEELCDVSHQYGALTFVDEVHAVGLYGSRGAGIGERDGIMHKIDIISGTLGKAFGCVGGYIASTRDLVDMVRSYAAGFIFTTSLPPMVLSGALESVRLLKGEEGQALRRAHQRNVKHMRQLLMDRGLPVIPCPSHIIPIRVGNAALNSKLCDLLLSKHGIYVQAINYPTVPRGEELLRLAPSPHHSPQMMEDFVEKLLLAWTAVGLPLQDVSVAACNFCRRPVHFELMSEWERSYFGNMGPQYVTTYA
Assay: discontinuous colorimetric assay of ALA
Format: biochemical

- Ki: 100 ± 20 µM
SMILES: C=C(CC(=O)SCCNC(=O)CCNC(=O)[C@H](O)C(C)(C)COP(=O)(O)OP(=O)(O)OC[C@H]1O[C@@H](n2cnc3c(N)ncnc32)[C@H](O)[C@@H]1OP(=O)(O)O)C(=O)O [itaconyl-CoA]
